SMILES strings stand for the structures. Where only a bound is given, the exact number is not on record here.

In assay [1] the target is T1, recombinant HPK1 protein (Homo sapiens, UniProt Q92918).
T1 construct: purchased Promega V6398
T1 sequence (Q92918 1-346 limits assumed): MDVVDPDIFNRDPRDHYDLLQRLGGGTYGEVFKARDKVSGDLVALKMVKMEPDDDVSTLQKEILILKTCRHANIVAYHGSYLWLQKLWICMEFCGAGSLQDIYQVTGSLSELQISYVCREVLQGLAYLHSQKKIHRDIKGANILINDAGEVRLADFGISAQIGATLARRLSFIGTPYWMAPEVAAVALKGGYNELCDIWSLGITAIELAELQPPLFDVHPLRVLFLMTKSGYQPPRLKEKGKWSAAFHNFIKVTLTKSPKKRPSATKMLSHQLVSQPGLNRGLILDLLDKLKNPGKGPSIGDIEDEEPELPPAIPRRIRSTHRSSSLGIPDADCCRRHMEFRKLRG
The assay can be described thus: Primary assay of HPK1 enzymatic activity inhibition (ADP-Glo luminescence). In kind it is biochemical. The following applies: recombinant HPK1, MBP substrate, 1 hour at room temperature. On the technique in general: In ADP-Glo the light output rises with the ADP produced.

The test system of assay [2] is Jurkat cells. The assay is described as follows: IL-2 release Jurkat assay (anti-CD3/anti-CD28 stimulation, IL-2 ELISA). In kind it is cell-based, human. The following applies: activation with 400 ng/mL aCD3 + 400 ng/mL aCD28, 24 hours.
[3] abbreviates: Table D: Jurkat, 6 μM of tested compounds, stimulated vehicle = B.
[4] abbreviates: Table C: Jurkat, 6 μM of tested compounds, stimulated vehicle = A.
The mark [5] stands for this setting: Table B: Jurkat, 1.5 μM of tested compounds.

As to `CCOC(=O)c1cnc(Nc2ccc(C(N)=O)c(C)c2)nc1N[C@H](CO)c1ccccc1` [Compound 10, Ethyl 2-(4-carbamoyl-3-methyl-anilino)-4-[[(1S)-2-hydroxy-1-phenyl-ethyl]amino]pyrimidine-5-carboxylate], the IC50 in assay [1] was in the range of 50 to 200 nM. Also, the “IL-2, pg/mL stimulated” value in assay [2] (setting [3]) is reported as “D (150 pg/mL≤IL-2)”. Turning to `Cc1cc(Nc2ncc([N+](=O)[O-])c(N[C@H](CO)c3ccccc3)n2)ccc1S(C)(=O)=O` [Compound 18, (2S)-2-[[2-(3-methyl-4-methylsulfonyl-anilino)-5-nitro-pyrimidin-4-yl]amino]-2-phenyl-ethanol], in assay [1], the IC50 was 200 to 500 nM. Moreover, the “IL-2, pg/mL stimulated” value in assay [2] (setting [4]) is on record as “D (150 pg/mL≤IL-2)”. For `CS(=O)(=O)c1ccc(Nc2ncc(C(N)=O)c(N[C@H](CO)c3ccccc3)n2)cc1F` [Compound 31, 2-{[3-fluoro-4-(methylsulfonyl)phenyl]amino}-4-{[(1S)-2-hydroxy-1-phenylethyl]amino}pyrimidine-5-carboxamide], the IC50 in assay [1] was in the range of 50 to 200 nM. Moreover, the “IL-2, pg/mL stimulated” value in assay [2] (setting [5]) is “C (25.0 pg/mL≤IL-2<35.0 pg/mL)”. On to `CNC(=O)c1cnc(Nc2ccc3c(c2)CCN(C)C3=O)nc1N[C@H](CO)c1ccccc1` [Compound 43, 4-{[(1S)-2-hydroxy-1-phenylethyl]amino}-N-methyl-2-[(2-methyl-1-oxo-1,2,3,4-tetrahydroisoquinolin-6-yl)amino]pyrimidine-5-carboxamide], for which the IC50 in assay [1] is 50 to 200 nM. Besides, in assay [2] (setting [5]), the “IL-2, pg/mL stimulated” value is listed as “D (35.0 pg/mL≤IL-2)”. As for `CCOC(=O)c1cnc(Nc2ccc3c(c2)CCNC3=O)nc1N[C@H](CO)c1ccccc1` [Compound 45, Ethyl 4-{[(1S)-2-hydroxy-1-phenylethyl]amino}-2-[(1-oxo-1,2,3,4-tetrahydroisoquinolin-6-yl)amino]pyrimidine-5-carboxylate], the IC50 in assay [1] is under 50 nM. In addition, the “IL-2, pg/mL stimulated” value in assay [2] (setting [4]) is given as “B (50 pg/mL≤IL-2<100 pg/mL)”.

Turning to `CCOC(=O)c1cnc(Nc2ccc3c(c2)CCC(=O)N3)nc1N[C@H](CO)c1ccccc1` [Compound 46, Ethyl 4-[[(1S)-2-hydroxy-1-phenyl-ethyl]amino]-2-[(2-oxo-3,4-dihydro-1H-quinolin-6-yl)amino]pyrimidine-5-carboxylate], the IC50 in assay [1] was under 50 nM. In addition, the “IL-2, pg/mL stimulated” value in assay [2] (setting [3]) was “D (150 pg/mL≤IL-2)”.

`CCOC(=O)c1cnc(Nc2ccc(C(=O)N(C)C)cc2)nc1N[C@H](CO)c1ccccc1` [Compound 47, Ethyl 2-[4-(dimethylcarbamoyl)anilino]-4-[[(1S)-2-hydroxy-1-phenyl-ethyl]amino]pyrimidine-5-carboxylate]: the IC50 in assay [1] was 50 to 200 nM. For the same compound, the “IL-2, pg/mL stimulated” value in assay [2] (setting [4]) is recorded as “B (50 pg/mL≤IL-2<100 pg/mL)”.

As for `CNC(=O)c1cnc(Nc2ccc(S(C)(=O)=O)c(C)c2)nc1N[C@H](CO)c1ccccc1` [Compound 65, 4-{[(1S)-2-hydroxy-1-phenylethyl]amino}-N-methyl-2-{[3-methyl-4-(methylsulfonyl)phenyl]amino}pyrimidine-5-carboxamide], the IC50 in assay [1] lay in the range of 50 to 200 nM. For the same compound, the “IL-2, pg/mL stimulated” value in assay [2] (setting [5]) is listed as “D (35.0 pg/mL≤IL-2)”. For `CCOC(=O)c1cnc(Nc2ccc(S(C)(=O)=O)cc2)nc1N[C@H](CO)c1ccccc1` [Compound 68, Ethyl 4-{[(1S)-2-hydroxy-1-phenylethyl]amino}-2-{[4-(methylsulfonyl)-phenyl]amino}pyrimidine-5-carboxylate] the same measures were under 50 nM and “D (35.0 pg/mL≤IL-2)”. For the compound `CCOC(=O)c1cnc(Nc2cccc(S(C)(=O)=O)c2)nc1N[C@H](CO)c1ccccc1` [Compound 69], in assay [1], the IC50 lay within 200 to 500 nM. In addition, the “IL-2, pg/mL stimulated” value in assay [2] (setting [4]) was “B (50 pg/mL≤IL-2<100 pg/mL)”.

As to `CNC(=O)c1cnc(Nc2ccc(F)c(-c3ccccc3)c2)nc1N[C@H](CO)c1ccccc1` [Compound 82, 2-[(6-fluorobiphenyl-3-yl)amino]-4-{[(1S)-2-hydroxy-1-phenylethyl]amino}-N-methylpyrimidine-5-carboxamide], the IC50 in assay [1] lay within 50 to 200 nM. The “IL-2, pg/mL stimulated” value in assay [2] (setting [5]) was “C (25.0 pg/mL≤IL-2<35.0 pg/mL)”. Regarding `CCOC(=O)c1cnc(Nc2ccc3c(c2)CCN(C(C)C)C3=O)nc1N[C@H](CO)c1ccccc1` [Compound 316, Ethyl 4-[[(1S)-2-hydroxy-1-phenyl-ethyl]amino]-2-[(2-isopropyl-1-oxo-3,4-dihydroisoquinolin-6-yl)amino]pyrimidine-5-carboxylate], in assay [1], the IC50 was at least 500 nM. On the same count and under the same terms, the result for `CS(=O)(=O)c1ccc(Nc2ncc(C(=O)N3CCCC3)c(N[C@H](CO)c3ccccc3)n2)cc1F` [Compound 371, [2-(3-fluoro-4-methylsulfonyl-anilino)-4-[[(1S)-2-hydroxy-1-phenyl-ethyl]amino]pyrimidin-5-yl]-pyrrolidin-1-yl-methanone] reads at least 500 nM. On to `CCOC(=O)c1cnc(Nc2ccc(S(C)(=O)=O)c(F)c2)nc1N1Cc2ccccc2CC1CO` (stereo not drawn) [Compound 388, ethyl 2-(3-fluoro-4-methylsulfonyl-anilino)-4-[3-(hydroxymethyl)-3,4-dihydro-1H-isoquinolin-2-yl]pyrimidine-5-carboxylate], for which the IC50 in assay [1] was at least 500 nM. For `CN(CCO)C(=O)c1cnc(Nc2ccc(S(C)(=O)=O)c(F)c2)nc1N[C@H](CO)c1ccccc1` [Compound 402, 2-(3-fluoro-4-methylsulfonyl-anilino)-N-(2-hydroxyethyl)-4-[[(1S)-2-hydroxy-1-phenyl-ethyl]amino]-N-methyl-pyrimidine-5-carboxamide], in assay [1], the IC50 is at least 500 nM. On the same count and under the same terms, the result for `O=C(NC1CCCC1)c1cnc(Nc2ccc(F)c(-c3ccccc3)c2)nc1N[C@H](CO)c1ccccc1` [Compound 440, N-cyclopentyl-2-[(6-fluorobiphenyl-3-yl)amino]-4-{[(1S)-2-hydroxy-1-phenylethyl]amino}pyrimidine-5-carboxamide] reads at least 500 nM; that for `CCOC(=O)c1cnc(Nc2ccc3c(c2)C(=O)NC(C(C)C)C(=O)N3)nc1N[C@H](CO)c1ccccc1` (stereo partly drawn) [Compound 467, Ethyl 4-[[(1S)-2-hydroxy-1-phenyl-ethyl]amino]-2-[(3-isopropyl-2,5-dioxo-3,4-dihydro-1H-1,4-benzodiazepin-7-yl)amino]pyrimidine-5-carboxylate], at least 500 nM; that for `O=C(NC1CCCC1)c1cnc(Nc2ccc(C(F)(F)F)c(Cl)c2)nc1N[C@H](CO)c1ccccc1` [Compound 472, 2-{[3-chloro-4-(trifluoromethyl)phenyl]amino}-N-cyclopentyl-4-{[(1S)-2-hydroxy-1-phenylethyl]amino}pyrimidine-5-carboxamide], at least 500 nM. The same measure, in the same setting: under `CCOC(=O)c1cnc(Nc2ccc3c(c2)CNC3=O)nc1N[C@H](CO)c1ccccc1` [Compound 565, ethyl 4-[[(1S)-2-hydroxy-1-phenyl-ethyl]amino]-2-[(1-oxoisoindolin-5-yl)amino]pyrimidine-5-carboxylate] stands under 50 nM; under `N#Cc1cnc(Nc2ccc3c(c2)CCNC3=O)nc1N[C@H](CO)c1ccccc1` [Compound 567, 4-[[(1S)-2-hydroxy-1-phenyl-ethyl]amino]-2-[(1-oxo-3,4-dihydro-2H-isoquinolin-6-yl)amino]pyrimidine-5-carbonitrile], at least 500 nM; under `CCOC(=O)c1cnc(Nc2ccc3c(c2)NC(=O)CCC3)nc1N[C@H](CO)c1ccccc1` [Compound 574, ethyl 4-[[(1S)-2-hydroxy-1-phenyl-ethyl]amino]-2-[(2-oxo-1,3,4,5-tetrahydro-1-benzazepin-8-yl)amino]pyimidine-5-carboxylate], at least 500 nM.

`CCOC(=O)c1cnc(N(c2ccc3c(c2)CCCNC3=O)c2ncc(C(=O)OCC)c(N[C@H](CO)c3ccccc3)n2)nc1N[C@H](CO)c1ccccc1` [Compound 576, ethyl 2-[[5-ethoxycarbonyl-4-[[(1S)-2-hydroxy-1-phenyl-ethyl]amino]pyrimidin-2-yl]-(1-oxo-2,3,4,5-tetrahydro-2-benzazepin-7-yl)amino]-4-[[(1S)-2-hydroxy-1-phenyl-ethyl]amino]pyrimidin-5-carboxylate]: in assay [1], the IC50 is 50 to 200 nM. On the same count and under the same terms, under `CS(=O)(=O)c1ccc(Nc2ncc3[nH]c(=O)n([C@H](CO)c4ccccc4)c3n2)cc1F` [Compound 577, 2-(3-fluoro-4-methylsulfonyl-anilino)-9-[(1S)-2-hydroxy-1-phenyl-ethyl]-7H-purin-8-one] stands at least 500 nM; under `C=Cc1noc(-c2cnc(Nc3ccc4c(c3)CCN(COCC[Si](C)(C)C)C4=O)nc2N[C@H](CO)c2ccccc2)n1` [Compound 580, 6-[[4-[[(1S)-2-hydroxy-1-phenyl-ethyl]amino]-5-(3-vinyl-1,2,4-oxadiazol-5-yl)pyrimidin-2-yl]amino]-2-(2-trimethylsilylethoxymethyl)-3,4-dihydroisoquinolin-1-one], under 50 nM. For `Cc1noc(-c2cnc(Nc3ccc4c(c3)CCN(COC(=O)C(C)(C)C)C4=O)nc2N[C@H](CO)c2ccccc2)n1` [Compound 581, [6-[[4-[[(1S)-2-hydroxy-1-phenyl-ethyl]amino]-5-(3-methyl-1,2,4-oxadiazol-5-l)pyrimidin-2-yl]amino]-1-oxo-3,4-dihydroisoquinolin-2-yl]methyl 2,2-dimethylpropanoate], in assay [2] (Table G: Jurkat, 1.0 μM of tested compounds), the “IL-2, pg/mL stimulated” value is listed as “D (150 pg/mL≤IL-2)”.

As a reminder, the IC50 is the concentration that gives 50% inhibition.
